Test [1] has as its system TGF-β signaling (TGF-β pSMAD, MPC-11). The experiment in a line: AlphaScreen SureFire SMAD3 (p-Ser423/425) assay, inhibition of TGF-β signaling. Format: cell-based. The following applies: Mus musculus, p-SMAD-3 (Ser423/425) in cell lysate after TGF-β stimulation. In a few lines:
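Phosphorylation of endogenous SMAD-3 at Ser423/425 was quantified with an AlphaScreen SureFire assay. Cells were exposed to compound for about 10 minutes, stimulated with TGF-β, and lysed in 1× Lysis Buffer. Lysate (5 μL) was combined with Reaction/Activation buffer plus Acceptor beads for 2 hours, then Donor beads for 1½ hours, and read on a plate reader.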

Test [2] deals with GDF8 signaling (GDF pSMAD, MPC11). The test is described as follows: AlphaScreen SureFire SMAD3 (p-Ser423/425) assay, inhibition of GDF8 signaling. It is filed as cell-based. The following applies: Mus musculus, MPC-11, p-SMAD-3 (Ser423/425) in cell lysate after GDF8 stimulation.

The text below walks through data of patent US10822337B2, “TGF-β inhibitorC” (Rigel Pharmaceuticals, Inc., priority 2015, dated 2020).

On to `Fc1ccc(-c2nn3c(c2-c2ccc4ncnn4c2)CCC3)c(F)c1F` [Compound 133, 6-(2-(2,3,4-Trifluorophenyl)-5,6-dihydro-4H-pyrrolo[1,2-b]pyrazol-3-yl)-[1,2,4]triazolo[1,5-a]pyridine], for which the figures for the IC50 in test [1] and in test [2] were 701 nM and 247 nM, respectively.

On to `COc1ccc(-c2nn3c(c2-c2ccc4[nH]ncc4c2)CCC3)cc1` [Compound 98, 5-(2-(4-Methoxyphenyl)-5,6-dihydro-4H-pyrrolo[1,2-b]pyrazol-3-yl)-1H-indazole], for which the IC50 in test [1] stood at 984 nM; in test [2], 295 nM.

As to `Cc1cccc(-c2nn3c(c2-c2ccc4ncsc4c2)OCC3)c1` [Compound 39], the IC50 is 175 nM in test [1] and 59.6 nM in test [2].

For `COc1cccc(-c2nn3c(c2-c2ccc4cn[nH]c4c2)CCC3)c1` [Compound 28, 6-(2-(3-Methoxyphenyl)-5,6-dihydro-4H-pyrrolo[1,2-b]pyrazol-3-yl)-1H-indazole], the IC50 in test [1] stood at 242 nM; in test [2] it was 80.2 nM.

Turning to `Fc1ccccc1-c1nn2c(c1-c1ccc3ncnn3c1)CCC2` [Compound 137, 6-(2-(2-Fluorophenyl)-5,6-dihydro-4H-pyrrolo[1,2-b]pyrazol-3-yl)-[1,2,4]triazolo[1,5-a]pyridine], the IC50 was 660 nM in test [1] and 144 nM in test [2].

For the compound `Cc1cc(-c2nn3c(c2-c2ccc4nccn4c2)CCC3)ccc1F` [Compound 20, 6-(2-(4-Fluoro-3-methylphenyl)-5,6-dihydro-4H-pyrrolo[1,2-b]pyrazol-3-yl)imidazo[1,2-a]pyridine], the IC50 in test [1] was found to be 366 nM; in test [2], 121 nM.

Take `Cc1cccc(-c2nn3c(c2-c2ccc4[nH]ncc4c2)CCC3)c1` [Compound 7, 5-(2-(m-Tolyl)-5,6-dihydro-4H-pyrrolo[1,2-b]pyrazol-3-yl)-1H-indazole]: the IC50 is 39.7 nM in test [1] and 15.1 nM in test [2].

For `Cc1cccc(-c2nn3c(c2-c2ccc4nccn4c2)OCCC3)c1` [Compound 42, 3-(Imidazo[1,2-a]pyridin-6-yl)-2-(m-tolyl)-6,7-dihydro-5H-pyrazolo[5,1-b][1,3]oxazine], the IC50 in test [1] turned out to be 331 nM; in test [2], 112 nM.

For `Cc1cc(-c2nn3c(c2-c2ccc4cn[nH]c4c2)CCC3)ccc1F` [Compound 3, 6-(2-(4-Fluoro-3-methylphenyl)-5,6-dihydro-4H-pyrrolo[1,2-b]pyrazol-3-yl)-1H-indazole], the IC50 is 231 nM in test [1] and 64.1 nM in test [2].

As for `Cc1cccc(-c2nn3c(c2-c2ccc4ncsc4c2)OCCC3)c1` [Compound 43, 3-(benzo[d]thiazol-6-yl)-2-(m-tolyl)-6,7-dihydro-5H-pyrazolo[5,1-b][1,3]oxazine], the IC50 in test [1] was determined as 501 nM; in test [2] it was 147 nM.

As to `Fc1ccc(-c2nn3c(c2-c2ccc4ncnn4c2)CCC3)c(F)c1Cl` [Compound 160, 6-(2-(3-Chloro-2,4-difluorophenyl)-5,6-dihydro-4H-pyrrolo[1,2-b]pyrazol-3-yl)-[1,2,4]triazolo[1,5-a]pyridine], the IC50 in test [1] worked out at 738 nM; in test [2], 296 nM.

Consider `FC(F)(F)c1cccc(-c2nn3c(c2-c2ccc4[nH]ncc4c2)OCC3)c1` [Compound 59, 7-(1H-Indazol-5-yl)-6-(3-trifluoromethylphenyl)-2,3-dihydropyrazolo[5,1-b]oxazole], for which the IC50 in test [1] was determined as 701 nM; in test [2], 217 nM.

For `Fc1ccc(-c2nn3c(c2-c2ccc4cn[nH]c4c2)CCC3)c(F)c1F` [Compound 129, 6-(2-(2,3,4-Trifluorophenyl)-5,6-dihydro-4H-pyrrolo[1,2-b]pyrazol-3-yl)-1H-indazole], the IC50 came to 1640 nM in test [1] and 346 nM in test [2].

Consider `Fc1ccc(-c2nn3c(c2-c2ccc4[nH]ncc4c2)CCC3)cc1OC(F)(F)F` [Compound 150, 5-(2-(4-Fluoro-3-trifluoromethoxyphenyl)-5,6-dihydro-4H-pyrrolo[1,2-b]pyrazol-3-yl)-1H-indazole], for which the IC50 in test [1] came to 1320 nM; in test [2], 310 nM.

Regarding `Fc1ccc(-c2nn3c(c2-c2ccc4nccnc4c2)CCC3)c(F)c1` [Compound 96, 6-(2-(2,4-Difluorophenyl)-5,6-dihydro-4H-pyrrolo[1,2-b]pyrazol-3-yl)quinoxaline], the IC50 in test [1] came to 668 nM; in test [2] it was 156 nM.

On to `Fc1ccc(-c2nn3c(c2-c2ccc4nccnc4c2)CCC3)cc1F` [Compound 89, 6-(2-(3,4-Difluorophenyl)-5,6-dihydro-4H-pyrrolo[1,2-b]pyrazol-3-yl)quinoxaline], for which the IC50 was determined as 1620 nM in test [1] and 418 nM in test [2].

As to `Fc1ccc(Cl)cc1-c1nn2c(c1-c1ccc3nccnc3c1)CCC2` [Compound 177, 6-(2-(5-Chloro-2-fluorophenyl)-5,6-dihydro-4H-pyrrolo[1,2-b]pyrazol-3-yl)quinoxaline], the IC50 in test [1] is 83.5 nM; in test [2], 35.6 nM.

As for `Cc1cc(-c2nn3c(c2-c2ccc4ncn(C)c4c2)CCC3)ccc1F` [Compound 16, 6-(2-(4-Fluoro-3-methylphenyl)-5,6-dihydro-4H-pyrrolo[1,2-b]pyrazol-3-yl)-1-methyl-1H-benzo[d]imidazole], the half-inhibitory concentration (IC50) in test [1] was 132 nM; in test [2] it was 65 nM.

`Cc1cc(-c2nn3c(c2-c2ccc4nccnc4c2)CCC3)c(F)cc1F` [Compound 184, 6-(2-(2,4-Difluoro-5-methylphenyl)-5,6-dihydro-4H-pyrrolo[1,2-b]pyrazol-3-yl)quinoxaline]: the IC50 in test [1] worked out at 302 nM; in test [2], 139 nM.

For `Fc1ccc(-c2nn3c(c2-c2ccc4nccnc4c2)CCC3)cc1` [Compound 53, 6-(2-(4-Fluorophenyl)-5,6-dihydro-4H-pyrrolo[1,2-b]pyrazol-3-yl)quinoxaline], the figures for the IC50 in test [1] and in test [2] were 2340 nM and 395 nM, respectively.

As to `COc1ccc(-c2nn3c(c2-c2ccc4cn[nH]c4c2)CCC3)cc1` [Compound 99, 6-(2-(4-Methoxyphenyl)-5,6-dihydro-4H-pyrrolo[1,2-b]pyrazol-3-yl)-1H-indazole], the IC50 in test [1] came out at 1650 nM; in test [2], 322 nM.

Take `Cc1cc(-c2nn3c(c2-c2ccc4nc[nH]c4c2)CCC3)ccc1F` [Compound 9, 6-(2-(4-Fluoro-3-methylphenyl)-5,6-dihydro-4H-pyrrolo[1,2-b]pyrazol-3-yl)-1H-benzo[d]imidazole]: the figures for the IC50 in test [1] and in test [2] were 152 nM and 51.5 nM, respectively.

`Fc1ccc(-c2nn3c(c2-c2ccc4cn[nH]c4c2)CCC3)cc1F` [Compound 84, 6-(2-(3,4-Difluorophenyl)-5,6-dihydro-4H-pyrrolo[1,2-b]pyrazol-3-yl)-1H-indazole]: the IC50 in test [1] turned out to be 1610 nM; in test [2], 326 nM.

Consider `COc1cccc(-c2nn3c(c2-c2ccc4ncccc4c2)OCC3)c1` [Compound 75, 6-(3-Methoxyphenyl)-7-(quinolin-6-yl)-2,3-dihydropyrazolo[5,1-b]oxazole], for which the results for the IC50 in test [1] and in test [2] were 7240 nM and 1240 nM, respectively.

Take `Cc1cc(-c2nn3c(c2-c2ccc4ncnn4c2)CCC3)ccc1F` [Compound 105, 6-(2-(4-Fluoro-3-methylphenyl)-5,6-dihydro-4H-pyrrolo[1,2-b]pyrazol-3-yl)-[1,2,4]triazolo[1,5-a]pyridine]: the IC50 was 112 nM in test [1] and 34 nM in test [2].

Regarding `FC(F)(F)c1cccc(-c2nn3c(c2-c2ccc4ncnn4c2)CCC3)c1` [Compound 108, 6-(2-(3-Trifluoromethylphenyl)-5,6-dihydro-4H-pyrrolo[1,2-b]pyrazol-3-yl)-[1,2,4]triazolo[1,5-a]pyridine], the IC50 was determined as 159 nM in test [1] and 39.8 nM in test [2].

Regarding `Fc1cccc(-c2nn3c(c2-c2ccc4ncsc4c2)CCC3)c1` [Compound 81, 6-(2-(3-Fluorophenyl)-5,6-dihydro-4H-pyrrolo[1,2-b]pyrazol-3-yl)benzo[d]thiazole], the half-maximal inhibitory concentration (IC50) in test [1] was 1870 nM; in test [2], 375 nM.

Regarding `FC(F)(F)Oc1cccc(-c2nn3c(c2-c2ccc4[nH]ncc4c2)CCC3)c1` [Compound 122, 5-(2-(3-Trifluoromethoxyphenyl)-5,6-dihydro-4H-pyrrolo[1,2-b]pyrazol-3-yl)-1H-indazole], the IC50 in test [1] came out at 77.4 nM; in test [2], 67.5 nM.

Turning to `COc1cccc(-c2nn3c(c2-c2ccc4ncn(C)c4c2)CCC3)c1` [Compound 29, 6-(2-(3-Methoxyphenyl)-5,6-dihydro-4H-pyrrolo[1,2-b]pyrazol-3-yl)-1-methyl-1H-benzo[d]imidazole], the figures for the IC50 in test [1] and in test [2] were 264 nM and 106 nM, respectively.

With `Fc1ccc(Cl)cc1-c1nn2c(c1-c1ccc3cn[nH]c3c1)CCC2` [Compound 174, 6-(2-(5-Chloro-2-fluorophenyl)-5,6-dihydro-4H-pyrrolo[1,2-b]pyrazol-3-yl)-1H-indazole], the IC50 in test [1] worked out at 153 nM; in test [2] it was 36.7 nM.

For `Fc1ccc(-c2nn3c(c2-c2ccc4cn[nH]c4c2)CCC3)cc1` [Compound 6, 6-(2-(4-Fluorophenyl)-5,6-dihydro-4H-pyrrolo[1,2-b]pyrazol-3-yl)-1H-indazole], the IC50 came to 1040 nM in test [1] and 200 nM in test [2].

Consider `Fc1ccc(-c2nn3c(c2-c2ccc4[nH]ncc4c2)CCC3)cc1Cl` [Compound 142, 5-(2-(3-Chloro-4-fluorophenyl)-5,6-dihydro-4H-pyrrolo[1,2-b]pyrazol-3-yl)-1H-indazole], for which the IC50 is 344 nM in test [1] and 153 nM in test [2].

With `Cc1cccc(-c2nn3c(c2-c2ccc4cn[nH]c4c2)OCC3)c1` [Compound 37, 7-(1H-indazol-6-yl)-6-(m-tolyl)-2,3-dihydropyrazolo[5,1-b]oxazole], the results for the IC50 in test [1] and in test [2] were 193 nM and 36.5 nM, respectively.
